{"source": "patent EP0774258A1", "about": "“Composition containing 5-fluorouracil and d4T for use in the treatment of retroviral infection” (priority 1995, dated 1997)", "key": {"[1]": {"tested_on": "PBMC", "conditions": "human"}, "[2]": {"tested_on": "clinical HIV-1 isolate, JEW", "assay": "Anti-HIV activity (p24 ELISA) in acutely infected PHA-stimulated PBMC, clinical isolate JEW", "format": "cell-based", "source_text": "The materials and experimental procedure used to obtain the results reported in Tables 1 and 2 are described below.\nVirus - A clinical HIV-1 isolate, JEW, was titrated with a infectivity assay [Johnson, V. A. and R. E. Byington. 1990. Infectivity assay, p. 71-76. in A. Aldovini and B. D. Walker (ed.), Techniques in HIV Research. Stockton Press, New York], and used in our experiments.\nChemicals - d4T was supplied by Bristol-Myers Squibb Company. 5-Fluorouracil (5-FU) was purchased from Sigma.\n• 1. […] 50 µl of 4 X 10^6/ml infected PBMC were added to each well in these plates to get a final 1 X 10^6 cells/ml, and incubated at 37°C. • 4. […] This was repeated with d4T using 5-FU concentrations of 0.1 µM and 0.5 µM, respectively."}}, "data": [{"smiles": "O=c1[nH]cc(F)c(=O)[nH]1", "note": "[5-FU, 5-fluorouracil]", "values": [{"measurement": "50% cytotoxicity concentration", "setting": "[1]", "result": "approximately 9 µM"}, {"measurement": "antiviral activity", "setting": "[2]; Fluorouracil alone, up to 0.5 µM, PHA-PBMC acutely infected by isolate JEW", "result": "no antiviral activity"}]}, {"smiles": "Cc1cn([C@H]2C=C[C@@H](CO)O2)c(=O)[nH]c1=O", "note": "[d4T, 2',3'-didehydro-3'-deoxythymidine]", "values": [{"measurement": "Fold Enhancement", "setting": "[2]; enhancement of d4T anti-HIV activity by 0.2 µM 5-FU, isolate JEW", "result": 1, "unit": "X"}]}, {"smiles": "OC[C@@H]1CC[C@H](n2cnc3c(O)ncnc32)O1", "note": "[ddI, 2',3'-dideoxyinosine]", "values": [{"measurement": "EC50", "setting": "[2]; Human immunodeficiency virus 1, PBMC, 168 h, 5-FU concentration 0.5 µM, PHA-stimulated PBMC, isolate JEW, p24 at day 7, mean of three experiments, read-out: EC50 (nM) of ddI", "result": "138 ± 26", "unit": "nM"}, {"measurement": "Fold Enhancement", "setting": "[2]; effect of 0.2 µM 5-FU on ddI anti-HIV activity, isolate JEW", "result": 0.6, "unit": "X"}, {"measurement": "Fold Enhancement", "setting": "[2]; effect of 0.5 µM 5-FU on ddI anti-HIV activity, isolate JEW", "result": 0.7, "unit": "X"}]}]}
